One data set relates to Rattus norvegicus. The conditions noted are these: oral; for LD50: acute, mortality.
The subject of another data set is Colinus virginianus. Particulars: oral.
In the next data set the test system is Canidae. The conditions noted are these: chronic; duration: 1 years; oral; Dog Other; histopathology: nonneoplastic.
In the next data set the test system is Hypoaspis aculeifer. Particulars: chronic/long-term.
The next data set relates to Oryctolagus sp. Particulars: developmental; development.
A further data set concerns Apis mellifera. Particulars: acute; duration: 48 hours; oral; unspecified; mortality.
A further data set has as its system Mus musculus. Particulars: developmental; development.
For the next data set, the system named is Daphnia magna. The conditions noted are these: chronic/long-term; duration: 21 days; reproduction.
The mark [1] stands for this setting: reproduction developmental, diet.

As usually defined, the NOAEL is the highest tested level that showed no adverse finding. Usually LOAEL stands for the lowest tested level that showed an adverse finding.

Molecules are shown by their SMILES. In brackets after ≈: the same amount, converted by molar mass.

`NC(Cc1ncn[nH]1)C(=O)O` (stereo not drawn) [1,2,4-Triazole-3-alanine] displayed an LD50 in the data set with Rattus norvegicus of more than 5000 mg/kg-day. This molecule also gave an LC50 in the data set with Colinus virginianus (acute, diet, mortality) of more than 1370 mg/kg-day.

Molecule `CC(C)(C)C(O)(CCc1ccc(Cl)cc1)Cn1cncn1` (stereo not drawn) [Tebuconazole] yielded an NOAEL in the data set on Canidae of 3 mg/kg-day. Besides, the LD50 with Rattus norvegicus is 1700 mg/kg-day; in the data set with Colinus virginianus (acute, mortality) it was 1990 mg/kg-day; in the data set on Apis mellifera it was more than 83 µg/piece. For the same molecule, the NOEL in the data set on Rattus norvegicus (reproduction developmental, diet, body weight) worked out at 10 mg/kg-day; with Oryctolagus sp. it was 10 mg/kg-day; in the data set on Colinus virginianus (setting [1]) it was 5.8 mg/kg-day. Further, the NOEC with Hypoaspis aculeifer is 50 mg/kg; in the data set on Oncorhynchus mykiss (chronic/long-term, duration: 83 days, growth), 0.012 mg/L; in the data set on Tagia sp. (chronic/long-term, duration: 8 weeks, reproduction), 10 mg/kg; in the data set on Daphnia magna, 0.01 mg/L. Besides, the LC50 is 4.4 µg/mL (≈ 14.3 µM) in the data set on Oncorhynchus mykiss (acute, duration: 96 hours, mortality); more than 703 mg/kg-day with Colinus virginianus (acute, diet, mortality); 1380 mg/kg with Tagia sp. (acute, duration: 14 days, mortality). The same molecule returned an LOEL with Colinus virginianus (setting [1]) of 12.4 mg/kg-day. Further, the lowest observed adverse effect level (LOAEL) with Mus musculus is 10 mg/kg-day.

These data come from EPA's ToxValDB 9.5 (doi:10.2903/j.efsa.2008.176r).
